The test system of data set [1] is α-adrenergic receptors. The settings on record: cited from earlier work.
Data set [2] has as its system male NMRI mice. In words: Toxicity, Irwin's test. The format is in vivo. The settings on record: intraperitoneal. The method, then: The toxicity of the compounds of the invention has been determined in male NMRI mice by means of Irwin's test (S. Irwin, Psychopharmacologia (Berl.), 13, (1968), 222-257).
Progressive doses of the product studied are administered intraperitoneally to groups of three mice until a lethal dose is reached (dose causing the death of two out of three animals in 48 hours). It follows from this Table that the compounds of the invention are not very toxic.

Data set [3] concerns presynaptic α2 -adrenergic receptors. In words: Inhibition of the contraction of the electrically stimulated guinea pig ileum (presynaptic α2-agonist activity). The settings on record: guinea pig ileum longitudinal muscle strips, electrical stimulation. The text has this:
Longitudinal muscle strips attached to an isometric strain gauge are suspended in Tyrode's solution and are stretched under a tension of 1 g (G. M. Drew, Brit. J. Pharmacol. 64, (1978), 293-300; M. Andrejak et al., Naunyn-Schmiedeberg's Arch. Pharmacol. 314, (1980), 83-87).
Electrical stimulation of the parasympathetic nerves associated with the ileum fragments causes a contraction of the muscle. This contraction is reduced in the presence of a presynaptic α2 -agonist and the magnitude by which the contraction is reduced depends on the concentration of the agonist used. This effect is antagonised by the simultaneous presence of an α2 -antagonist such as alpha-yohimbine.
The IC30 concentration (in mole/l) that reduces by 30% the intensity of the contraction of the muscle is determined.

Data set [4] has as its target T1, postsynaptic α1 -adrenergic receptor (Rattus norvegicus, UniProt P23944).
T1 construct: isolated aorta of the rat; from tissue; host or cells: rat isolated aorta
T1 sequence (P23944 1-561): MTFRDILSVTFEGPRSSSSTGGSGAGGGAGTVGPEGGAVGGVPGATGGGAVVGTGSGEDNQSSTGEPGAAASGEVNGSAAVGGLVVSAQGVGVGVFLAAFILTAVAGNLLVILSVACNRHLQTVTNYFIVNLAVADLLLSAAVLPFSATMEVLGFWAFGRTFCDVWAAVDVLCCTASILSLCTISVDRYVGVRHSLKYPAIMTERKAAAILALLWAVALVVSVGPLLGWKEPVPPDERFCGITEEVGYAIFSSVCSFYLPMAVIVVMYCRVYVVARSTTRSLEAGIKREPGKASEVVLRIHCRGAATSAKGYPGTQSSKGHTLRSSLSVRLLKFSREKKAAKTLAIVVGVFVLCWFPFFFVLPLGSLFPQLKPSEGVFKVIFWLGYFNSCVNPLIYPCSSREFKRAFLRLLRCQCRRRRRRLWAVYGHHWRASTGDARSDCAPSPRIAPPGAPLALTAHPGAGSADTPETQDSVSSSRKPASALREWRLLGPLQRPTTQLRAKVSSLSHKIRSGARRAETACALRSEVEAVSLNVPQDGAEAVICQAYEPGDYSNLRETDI
In words: Postsynaptic α1-antagonist activity: inhibition of norepinephrine-induced contraction of the isolated aorta of the rat. The settings on record: read-out: ED30 (concentration which causes 30% inhibition of the contraction induced by norepinephrine). As to the method:
A non selective α-agonist substance such as norepinephrine induces a sustained contraction of the isolated aorta of the rat (J. M. Van Rossum Arch. Int. Pharmacodyn. 143, (1963), 299-330). This contraction can be inhibited by α1 -adrenergic blocking substances such as prazosin. In this test, a control contraction is carried out with norepinephrine at 3.2×10^-8 mole/l. After washing and stabilizing the preparation, the compound to be tested is added to the bath. Norepinephrine is added 5 minutes after the compound tested, and inhibition of the contraction induced by norepinephrine is measured. Next, inhibition of the contraction induced by norepinephrine is evaluated a second and third time in the presence of increasing concentrations of the compound tested.

For data set [5], the system named is coronary occlusion in the rat. In words: Anti-ischemic and anti-hypertensive activity: coronary occlusion in the anesthetized rat (elevation of the T wave of the electrocardiogram, arterial pressure). The format is in vivo, male albino rat of the Sprague-Dawley strain. To be noted: Rattus norvegicus, iv. The source says:
The cardiac anti-ischemic activity of compounds manifests itself by their capacity to oppose the elevation of the T wave of the electrocardiogram, induced by a coronary occlusion in the rat. Continuous monitoring of the arterial pressure also enables to reveal the anti-hypertensive effects. The animal used for the test is a male albino rat of the Sprague-Dawley strain, weighing 220 to 280 g. On the day of the experiment, the animal is anesthetized by intraperitoneal administration of pentobarbital (60 mg/kg), then placed under endotracheal intubation. A ligature system is fitted around the descending left anterior coronary artery according to the procedure of Johnston et el. (Can. J. Physiol. Pharmacol., 61 (1983), 1340-1353). After closing the thorax, three electrodes are arranged on the body of the animal ("V4" thoracic derivation), in order to continuously record the shape of the electrocardiogram signal (in particular the T wave). Catheters are introduced into the right carotid artery and the right jugular vein to measure the arterial pressure and to administer intravenously the compound tested or the vehicle solution. Four 45 second coronary occlusions are performed, separated by episodes of reperfusion of 30, 35 and 30 minutes respectively. The compound to be studied or the vehicle are administered intravenously in bolus, 30 minutes before occlusion 3. The T electrocardiographic signal and the arterial pressure are continuously measured during the entire experiment.
The effects of the compounds according to the invention are quantified by comparing the amplitude of the elevation of the T wave at occlusions 3 and 4 (that is 30 minutes and 60 minutes after administration) with its value at occlusion 2 (that is before administration).
the second column indicates the dose of compound administered, expressed in mole/kg;
the third and the fourth columns indicate the anti-ischemic effect caused by administering the compound tested. The anti-ischemic effect represents the reduction in the elevation of the T wave caused by coronary occlusions 3 and 4, expressed in % with respect to occlusion 2, before administration of the compound (ΔT3 and ΔT4 respectively);
the fifth and sixth columns indicate the anti-hypertensive effect caused by administration of the compound tested. The anti-hypertensive effect is expressed as the maximum lowering of arterial pressure, measured a) between 5 and 30 minutes, and b) between 30 and 60 minutes after intravenous injection of the compound tested (ΔPa and ΔPb respectively). This lowering is expressed in % with respect to the value measured before injection.

The mark [6] stands for this setting: 0.5 h, read-out: ΔPa (maximum lowering of arterial pressure).
Where [7] appears, read: 0.5 h, read-out: ΔT3 (anti-ischemic effect: change in elevation of the T wave, occlusion 3 vs occlusion 2).
Where [8] appears, read: 1 h, read-out: ΔPb (maximum lowering of arterial pressure).
Setting [9] is: 1 h, read-out: ΔT4 (anti-ischemic effect: change in elevation of the T wave, occlusion 4 vs occlusion 2).

Where two headings read alike, the source gives them in different places.

Regarding `CC1(c2c[nH]cn2)CCCc2ccccc21` (stereo not drawn) [4-(1,2,3,4-tetrahydro-1-methyl-1-naphthalenyl)-1H-imidazole], in data set [1], the “affinity towards α-adrenergic receptors, in words” value is “slight affinity”.
For the compound `Cl.Oc1cccc2c1CCCC2c1c[nH]cn1` (stereo not drawn) [Compound F, 5,6,7,8-tetrahydro-5-(1H-imidazol-4-yl)-1-naphthalenol hydrochloride], the “Lethal dose (dose causing the death of two out of three animals in 48 hours)” value (“Lethal dose” below) in data set [2] came to 214.3 mg/kg. Besides, the “IC30 (concentration that reduces by 30% the intensity of the contraction of the muscle)” value in data set [3] was 3.7 nM. Moreover, the IC30 in data set [4] worked out at 230 nM. In addition, the change in vivo at 3 µmol/kg in data set [5] (setting [6]) is -32%; in data set [5] (setting [7]), -64%; in data set [5] (setting [8]) it was -36%; in data set [5] (setting [9]), -59%.
Regarding `Cc1ccc2c(c1)CCCC2c1c[nH]cn1` (stereo not drawn) [Compound G, 4-(1,2,3,4-tetrahydro-6-methyl-1-naphthalenyl)-1H-imidazole], in data set [2], the “Lethal dose” value stood at 118.9 mg/kg. Further, in data set [3], the “IC30 (concentration that reduces by 30% the intensity of the contraction of the muscle)” value turned out to be 30 nM. For the same compound, the IC30 in data set [4] was determined as 72 nM. The change in vivo at 3 µmol/kg is -22% in data set [5] (setting [6]), -24% in data set [5] (setting [7]), -14% in data set [5] (setting [8]) and -16% in data set [5] (setting [9]).
Take `Cl.Oc1ccc2c(c1)CCC2c1c[nH]cn1` (stereo not drawn) [Compound H, 2,3-dihydro-1-(1H-imidazol-4-yl)-1H-indene-5-ol hydrochloride]: the “Lethal dose” value in data set [2] is on record as 236.7 mg/kg. Further, the “IC30 (concentration that reduces by 30% the intensity of the contraction of the muscle)” value in data set [3] stood at 36 nM. Moreover, in data set [4], the IC30 is 210 nM. Further, the change in vivo at 3 µmol/kg in data set [5] (setting [6]) is -23%; in data set [5] (setting [7]), -48%; in data set [5] (setting [8]), -19%; in data set [5] (setting [9]), -55%.
As for `COc1cccc2c1C(c1c[nH]cn1)CCC2` (stereo not drawn) [Compound I, 4-(1,2,3,4-tetrahydro-8-methoxy-1-naphthalenyl)-1H-imidazole], the “Lethal dose” value in data set [2] is listed as 228.3 mg/kg. Moreover, the “IC30 (concentration that reduces by 30% the intensity of the contraction of the muscle)” value in data set [3] came out at 8000 nM. Also, the IC30 in data set [4] turned out to be 1800 nM. Besides, the change in vivo at 1 µmol/kg in data set [5] (setting [6]) was -26%; in data set [5] (setting [7]) it was -37%; in data set [5] (setting [8]) it was -16%; in data set [5] (setting [9]), -57%.
On to `COc1cc2c(cc1OC)C(c1c[nH]cn1)CCC2` (stereo not drawn) [Compound J, 4-(1,2,3,4-tetrahydro-6,7-dimethoxy-1-naphthalenyl)-1H-imidazole], for which the “Lethal dose” value in data set [2] was 258.3 mg/kg. Further, in data set [3], the “IC30 (concentration that reduces by 30% the intensity of the contraction of the muscle)” value was 130 nM. In addition, the IC30 in data set [4] is 2900 nM. Moreover, the change in vivo at 1 µmol/kg is -23% in data set [5] (setting [6]), -31% in data set [5] (setting [7]), -16% in data set [5] (setting [8]) and -29% in data set [5] (setting [9]).

Source of the values: patent US5658938A, “Substituted 1H-imidazoles” (U C B S.A., priority 1994, dated 1997).
